Assay results as given in patent publication US20250345492A1, “AN ANTIBACTERIAL POLYPEPTIDE COMPOUND, A MEDICAL DEVICE, HYDROGEL AND USE THEREOF” (priority 2020, published 2025).
Ends that are not written are not given here.

Columns and labels:
[1] = tested on: Bacillus subtilis (ATCC 23857); settings: standard strain
How it was run: (§1)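 Log-phase cells grown in MH (bacteria) or SD (fungi) medium at 37 °C were plated at 1×10^5 CFU/ml with 2-fold serially diluted peptide (1-256 μM solutions added at twice final concentration). After 12 h at 37 °C, MIC was taken as the first clear well by eye, in triplicate.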

[2] = tested on: Cronobacter sakazakii (ATCC 29544); settings: standard strain
How it was run: as §1

[3] = tested on: P-2c, clinical isolated drug-resistant strain PA; settings: strain P-2c (PA)
How it was run: as §1

[4] = tested on: Pseudomonas aeruginosa (ATCC 27853); settings: standard strain
How it was run: as §1

[5] = tested on: human cervical cancer cell Hela; experiment: Cytotoxicity, MTT colorimetry; assay type: cell-based
Protocol: (§2) For cytotoxicity determination, the MTT colorimetry was used to evaluate the effects of the compounds on the proliferation of human cervical cancer cell Hela, human embryonic renal epithelial cell HEK293 and mouse mononuclear macrophage RAW264.7.
(§3) Taking compounds 2, 8, 9, 13 and 15 of the present invention as examples, the cytotoxicity of the antibacterial polypeptide compounds was analyzed. Three cell lines were employed for the present invention, namely human cervical cancer cell Hela, human embryonic renal epithelial cell HEK293 and mouse mononuclear macrophage RAW264.7. Hela cells were cultured in RPMI 1640 medium with 10% newborn calf serum, HEK293 cells and RAW264.7 cells were cultured in DMEM medium with 10% fetal bovine serum. Simply, cells (1×10^4 cells/well) were inoculated to a 96-well plate and incubated in an incubator set to 5% CO2 at 37° C. After 24 hours, compounds of different concentrations were added and incubated in the 5% CO2 incubator. After 24 hours, 20 μL of MTT solution with a concentration of 5 mg/mL was added to each well and incubated for 4 hours. After that, the medium was removed with a pipet, and 150 μL of DMSO added to dissolve the purple-blue formazan crystals. The solution was shaken in an oscillator for 5 mins before detecting the absorbance value at 570 nm using the ELISA reader, and then the survival rate was calculated with the formula: (OD dosing group/OD control group)×100% (n=3).

[6] = tested on: human embryonic renal epithelial cell HEK293; experiment: Cytotoxicity, MTT colorimetry; assay type: cell-based
Protocol: as §2, §3

[7] = tested on: mouse mononuclear macrophage RAW264.7; experiment: Cytotoxicity, MTT colorimetry; assay type: cell-based
Protocol: as §2, §3

E. coli (ATCC 25922) = experiment: Mouse septic peritonitis model, survival; assay type: in vivo, Kunming mice; settings: 20 mg/kg intraperitoneally one hour after E. coli inoculation, 7 days of observation
Protocol: The determination of the in vivo antibacterial activity of the antibacterial polypeptide compounds is to reflect the antibacterial activity in vivo by detecting the survival rate of mice infected with bacteria or fungi.
Taking compounds 2, 8, 9, 13 and 15 of the present invention as examples, the in vivo antibacterial effects of the antibacterial polypeptide compounds were analyzed. The mice used in this test were Kunming mice, which were placed in constant-temperature environment (22±1° C.). Simply, 36 Kunming mice (18-22 g of body weight) were randomly divided into 6 groups and intraperitoneally injected with 0.2 ml of 3×10^8 CFU/mL E. coli (ATCC 25922) on Day 1 to establish mouse septic peritonitis model. The mice were administered intraperitoneally one hour after inoculation with the bacteria, and then the compounds 2, 8, 9, 13 and 15 were injected intraperitoneally at a dose of 20 mg/kg of body weight. Polymyxin B (20 mg/kg) was selected as a positive reference control, and a negative control group received intraperitoneal injection of sterile saline. After 7 days of observation, the survival rates of mice in administration groups and control groups were calculated to create survival curves.

| Substance | MIC B. subtilis ATCC23857 [1] | MIC C. sakazakii ATCC29544 [2] | MIC [3] | MIC P. aerugmosa ATCC27853 [4] | effect on proliferation (inhibitory activity) [5] | effect on proliferation (inhibitory activity) [6] | effect on proliferation (inhibitory activity) [7] | survival rate of mice (E. coli (ATCC 25922)) |
| --- | --- | --- | --- | --- | --- | --- | --- | --- |
| Pro-Trp-Orn-Leu-Orn-Leu-His-Leu-NH2 (PWXLXLHL; HELM PEPTIDE1{P.W.[Orn].L.[Orn].L.H.L.[am]}$$$$V2.0; N-terminus assumed; SMILES CC(C)C[C@H](NC(=O)[C@H](Cc1c[nH]cn1)NC(=O)[C@H](CC(C)C)NC(=O)[C@H](CCCN)NC(=O)[C@H](CC(C)C)NC(=O)[C@H](CCCN)NC(=O)[C@H](Cc1c[nH]c2ccccc12)NC(=O)[C@@H]1CCCN1)C(N)=O) [Compound 9] | 16 µM | 16 µM | 8 µM | 8 µM | no inhibitory activity | no inhibitory activity | no inhibitory activity |  |
| Pro-Phe-Lys-Leu-Ser-Leu-His-Leu-NH2 (PFKLSLHL-NH2) [Compound J-1, reference compound] | 32 µM | 64 µM | 32 µM | 32 µM |  |  |  | about 50% |
